Measurements as given in patent US11591284B2, “Compounds for the treatment of neuromuscular disorders” (NMD Pharma A/S, priority 2017, dated 2023).
Read-outs that look alike come from different tables or passages of the source.

Legend:
[1] = tested on: isolated rat soleus muscles; assay: Recovery of nerve-stimulated force in isolated rat soleus muscles exposed to 3.5 mM Mg2+
Experimental: (§1) In all contraction experiments, isometric force production was determined and force produced during contractions was quantified by measuring the integral of the force response (AUC). Stimulation and force recordings have been described elsewhere. […] In these latter experiments, extracellular recordings of action potentials (M-waves) could be measured without temporal overlap with stimulation artefacts.
The aim was to find compounds that by inhibition of CIC-1 channels can recover nerve-stimulated force under conditions of fatigue including conditions where fatigue is caused by compromised neuromuscular transmission. Neuromuscular transmission dysfunction can develop because of both pre- and/or post-synaptic complications in connection with a disorder or as part of neuromuscular blockade during/after surgery. In the initial series of drug testing, experiments were performed with isolated muscles in the presence of sub-maximal ACh receptor antagonist tubocurarine. Since the inclusion of tubocurarine caused a partial loss of neuromuscular transmission this experiment mimics the conditions in myasthenia gravis and neuromuscular blockade. To mimic conditions with pre-synaptic complication (Lambert Eaton syndrome, motor neuron disorder, polyneuropathy) the intact nerve-muscle preparations were incubated at elevated extracellular Mg^2+, which is known to suppress release of ACh from nerve terminals of motor neurons.
(§2) To initially confirm that inhibition of CIC-1 ion channels can be used to recover contractile force in muscle with reduced neuromuscular transmission, isolated nerve-muscle preparations were first exposed to either tubocurarine (FIG. 2A) or elevated Mg^2+ (FIG. 2B) and then a specific CIC-1 inhibitor (9-AC) was added.
The next series of experiments determined whether the compounds that recovered nerve-stimulated force in the presence of tubocurarine could also recover nerve-stimulated force at elevated extracellular Mg^2+.

[2] = tested on: isolated rat soleus muscles; assay: Recovery of nerve-stimulated force in isolated rat soleus muscles exposed to sub-maximal tubocurarine; settings: for 500 μM % change after addition: 500 μM compound
Experimental: FIGS. 3A-3B. […] The motor nerve was stimulated every 10 min for 2 s with 30 Hz with field stimulation using short duration pulses. […] Traces are shown before addition tubocurarine, after 40 min with tubocurarine, and after 110 min tubocurarine. […] This recovery of force was used in Table 1.
as §1, §2
To identify CIC-1 inhibitors that could be used for treatment of neuromuscular disorders we repeated the experiment shown in FIG. 2A but instead of adding 9-AC we added the compounds of interest in different concentrations within the range from 10 to 500 μM. […] For comparison with the muscle only exposed to tubocurarine (grey trace), the two traces have been overlaid. […] For comparison, muscles only exposed to tubocurarine have been included. The dotted line indicates the recovery of force with C8 when compared to the force production before its addition. This value was used in Table 1 for evaluation of the efficacy of the different compounds in recovering force.

[3] = tested on: isolated rat soleus muscles; assay: Recovery of nerve-stimulated force in isolated rat soleus muscles with ACh receptors inhibited by 2 μM rocuronium; settings: 50 μM compound added after 2 μM rocuronium had reduced force to 51±5%; 8 muscles; p<0.01
Experimental: In a separate series of experiments with 8 isolated rat soleus muscles, ACh receptors were inhibited using 2 μM rocuronium, which is a clinically used neuromuscular blocking agent. Under these conditions the nerve-stimulated force was reduced to 51±5% of force before rocuronium. […] This illustrates the potential of these compounds to be used as reversal agents.

rats [4] = assay: Rotarod running performance of rats after I.P. tubocurarine; assay type: in vivo, rat; settings: 20 mg/kg I.P., 2 hrs before tubocurarine (0.13 mg/kg I.P.); tested 21 min after tubocurarine; sham around 2%
Experimental: FIGS. 9A-9B. […] FIG. 9A illustrates the design of the experiments. Prior to Day One the animals had been familiarized to the rotarod in three training sessions distributed over two days.
(§3) In both series of experiments, running performance was tested on a rotarod using a protocol where the rod was accelerated gradually over a 5 min period, and the running time and covered distance before falling off the rod were measured. […] Experiments with tubocurarine were carried out over two days, and on each day the effect of tubocurarine on running performance was tested. On the first day only tubocurarine was injected. […] On the second day, the animals were first allowed to run on the rotarod, and all animals performed normally. […] The allocation of the animals into the two groups (C8 or sham) was random and unknown to the experimenter (blinded experimental design).
In the first series of in vivo experiments, myasthenia gravis was simply mimicked by I.P. injection of tubocurarine (0.13 mg/kg) in animals that had been familiarized to running on the rotarod. On the first of two consecutive days, tubocurarine was injected I.P. and the running performance of the animal was tested 21 minutes after this injection. On the second day of experimentation, the animals first performed a test run to ensure that they were no longer affected by the tubocurarine injected the day before. […]

[5] = Pharmacokinetic analysis of a single I.P. dose in rats; assay type: in vivo, Sprague-Dawley rats; settings: rat, single I.P. dose 10 mg/kg, plasma
Experimental: This part of the study was performed by Pipeline Biotech A/S (Spørring, Denmark). […] Plasma concentrations (free and bound) were determined by OnTarget Chemistry (Uppsala, Sweden, Project No.: PB243-001).
Before conducting in vivo experiments with animal models of myasthenia gravis, some pharmacokinetic details were obtained for C8 in response to one-bolus I.P. injection.

soleus muscles = assay: Mg2+ concentration required to depress nerve-stimulated force by 50% (Kd,Mg2+) in soleus muscles; set-up: species or system rat; settings: combination of C8 and 3,4-diaminopyridine
Experimental: FIGS. 6A-6E. […] Muscles from 4-week-old rats were stimulated to contract by activating the motor nerve with short duration pulses in field stimulation. Muscles contracted every 10 min for 2 s in response to 30 Hz stimulation. Four different experimental conditions were used. […] C) similar to A) but this muscle had been pre-incubated with 3,4-AP. […] The force integral (AUC) was determined at each extracellular Mg^2+ concentration. AUC was plotted against Mg^2+ concentration and the data was fitted to a sigmoidal function. This provided the extracellular Mg^2+ concentration that was required to reduce the nerve-stimulated force to 50% (Mg50) under the four different conditions (see Table 5).
While the use of tubocurarine mimics conditions with reduced neuromuscular transmission due to post-synaptic dysfunction (myasthenia gravis, neuromuscular blockade), the experiments with elevated extracellular Mg^2+ mimics conditions with pre-synaptic dysfunction akin to a range of neuromuscular disorders including Lambert Eaton syndrome, motor neuron disorders and polyneuropathy. […] Based on this it was determined whether recovery of nerve-stimulated force at elevated extracellular Mg^2+ with CIC-1 inhibiting compounds could be added to force recovery with 3,4-AP. […] To quantify the effect of compounds on Mg^2+ sensitivity the force at the different Mg^2+ concentrations was determined. […]

isolated human muscles = settings: human muscle; 150 μM (FIG. 8A)
rats [6] = assay: Rotarod running performance in passive myasthenia gravis induced with MAB35 monoclonal antibody; assay type: in vivo, rat; settings: MAB35 model, compared with sham
Experimental: FIG. 10. […] Prior to I.P. injection of MAB35 the animals had been familiarized to the rotarod over three training sessions distributed over two days. […] After this treatment performance was monitored every second hour. *Indicates significant different as evaluated using student t-test.
as §3
In experiments with MAB35, animals were first familiarized with the rotarod over two consecutive days and then injected I.P. with MAB35. After injection, rotarod performance was then again monitored regularly over the consecutive two days. […] A considerable number of animals, however, became moribund failing to walk and they had altered ventilation (rapid) and pronounced ptosis. These animals were not included in experiments. […]

rat soleus muscle = assay type: cell-based; settings: 10 and 25 μM; 1 μM μ-conotoxin GiiiB
[7] = 150 μM compound, % change in AUC force compared to AUC after 40 min in tubocurarine, before addition
[8] = % change in AUC force compared to AUC after 40 min in tubocurarine, before addition

Structure (SMILES): O=C(O)c1c2ccccc2cc2ccccc12 [Compound 9-AC, reference compound]
- recovery of force and M-wave signal ([1]; 9-AC added at elevated Mg2+ (FIG. 2B)): marked recovery of both force and M-wave signal
- recovery of force and M-wave signal ([2]; 9-AC added after tubocurarine (FIG. 2A)): marked recovery of both force and M-wave signal

Structure (SMILES): C[C@H](OCc1ccccc1)C(=O)O [Compound C5, (2S)-2-(benzyloxy)propanoic acid]
- 150 μM % change after addition [2, 7]: 1%
- 500 μM % change after addition [2, 8]: 42%

Structure (SMILES): CC(C(=O)O)S(=O)(=O)c1ccc(F)cc1 (stereo not shown) [Compound C6, 2-(4-fluorobenzenesulfonyl)propanoic acid]
- 150 μM % change after addition [2, 7]: −8%
- 500 μM % change after addition [2, 8]: 9%

Structure (SMILES): CCC(Oc1ccc(Cl)cc1)C(=O)O (stereo not shown) [Compound C7, 2-(4-chlorophenoxy)butanoic acid]
- 150 μM % change after addition [2, 7]: 0%
- 500 μM % change after addition [2, 8]: 40%

Structure (SMILES): C[C@H](Oc1ccc(Br)cc1)C(=O)O [Compound C8, (2S)-2-(4-bromophenoxy)propanoic acid]
- nerve-stimulated contractile force, % of force before rocuronium [3]: 81±4%
- increase in running distance on Day Two compared to Day One (rats [4]): around 150%
- CI_obs [5]: 48.69 mL/h
- VD_obs [5]: 259.62 mL
- effect of combination on recovery of neuromuscular transmission (soleus muscles): unexpected synergistic effect
- contractile force at elevated K+ and TTX (isolated human muscles): markedly recovery
- rotarod running performance after injection (rats [6]; 20 mg/kg I.P.): decline was reduced
- rotarod running performance after injection (rats [6]; 30 mg/kg I.P.): clear recovery of performance
- 50 μM % change after addition ([1]; 50 μM compound, 3.5 mM Mg2+, % change in AUC force vs column 3 (after 70 min at elevated Mg2+)): 13 ± 4%
- 100 μM % change after addition ([1]; 100 μM compound, 3.5 mM Mg2+, % change in AUC force vs column 3 (after 70 min at elevated Mg2+)): 26 ± 5%
- 150 μM % change after addition [2, 7]: 23%
- EPP amplitude compared to control conditions (rat soleus muscle): significantly larger EPPs

Structure (SMILES): Cl.NCC(Oc1ccc(F)cc1)C(=O)O (stereo not shown) [Compound C9, 3-amino-2-(4-fluorophenoxy)propanoic acid hydrochloride]
- 150 μM % change after addition [2, 7]: −13%
- 500 μM % change after addition [2, 8]: 5%

Structure (SMILES): CC(Oc1ccc(Cl)cc1)C(=O)Oc1ccc(Cl)cc1 (stereo not shown) [Compound C11, 4-chlorophenyl 2-(4-chlorophenoxy)propanoate]
- 150 μM % change after addition [2]: 54%

Structure (SMILES): COCC(C)C(Oc1ccc(Br)cc1)C(=O)O (stereo not shown) [Compound C21, 2-(4-bromophenoxy)-4-methoxy-3-methylbutanoic acid]
- 150 μM % change after addition [2, 7]: 7%
- 500 μM % change after addition [2, 8]: 36%
